Key:
Assay type in all cases: physicochemical
[1] = Exudation (45° C. for 2 hours, then 25° C. for 3 hours, visual); set-up: key: A: When the amount of exudation was small and there were no oil droplets; B: when a slight degree of exudation was observed but the exudation went back in the temperature-controlled room at 25° C.; when the amount of exudation was large and the exudation did not go back even in the temperature-controlled room at 25° C
Protocol: After the sample stored in the 50 mL glass container as described in the above-mentioned sample preparation method was stored in a temperature-controlled room at 45° C. for 2 hours, the amount of exudation on the surface of the sample was visually evaluated. The extent to which the exudation went back when the sample was returned to the temperature-controlled room at 25° C. and stored for 3 hours was also evaluated.

[2] = Evaluation of hardness (EZ-Test-20N hardness meter, needle penetration); settings: 25° C.
Protocol: A sample such as a solid or an oil-based cosmetic was stored in a temperature-controlled room at 25° C. for at least 1 day, and measurement was carried out using an EZ-Test-20N hardness meter (manufactured by Shimadzu Corporation). The needle diameter was 1.0 mmφ, and the maximum value measured for the stress (N) at a needle penetration depth of 10 mm with a test speed of 10 mm/min was defined as the hardness.
Measurement was carried out using an EZ-Test-20N hardness meter (manufactured by Shimadzu Corporation). The needle diameter was 1.0 mmφ, and the maximum value measured for the stress (N) at a needle penetration depth of 10 mm with a test speed of 10 mm/min was defined as the hardness.

[3] = Miscibility evaluation (visual, 100° C. to 110° C.); settings: result in words
Protocol: Sample preparation method: Predetermined amounts (mass %) of all components were weighed, dissolved at a temperature of 100° C. to 110° C. as appropriate, stirred until uniform, then cooled to 80° C. to 90° C. while stirring, poured into a preheated 50 mL glass container, transferred to a temperature-controlled room at 45° C., stored for 1 hour while gradually cooling, further transferred to a temperature-controlled room at 25° C., and stored for at least 1 day, thus giving a sample. Evaluation Methods for Various Characteristics (1) Miscibility Evaluation Method
The miscibility at a temperature of 100° C. to 110° C. when preparing the sample was evaluated visually as a degree of difficulty. One that was easily miscible was evaluated as ‘A’, one that was slightly difficulty miscible was evaluated as ‘B’, and one that was difficulty miscible was evaluated as ‘C’.

[4] = UNICLEAR 100VG: 30% with 70% of the listed component
[5] = Versamid 930: 30% with 70% of the listed component
[6] = […] A200V: 30% with 70% of the listed component

| Compound | Exudation properties [1, 4] | Hardness [2, 4] | further results |
| --- | --- | --- | --- |
| CCCCC(CC)C(=O)OCC(C)(C)COC(=O)C(CC)CCCC (stereo not shown) [NDO, Neopentylglycol diethylhexanoate] | A | 0.90 N |  |
| CCC(COC(=O)CCCCCCCCCCCCCCC(C)C)(COC(=O)CCCCCCCCCCCCCCC(C)C)COC(=O)CCCCCCCCCCCCCCC(C)C [TTI, Trimethylolpropane triisostearate] | B | 0.01 N | Exudation properties [1, 6]: B; Hardness [2, 6]: 0.02 N |
| Nc1cc(S(=O)(=O)[O-])cc2cc(S(=O)(=O)[O-])c(N=Nc3ccccc3)c(O)c12.[Na+].[Na+] [Red. No. 227] |  |  | miscibility with the base [3]: particularly excellent |
| CCCCCCCCCCCCCCC(CO)CCCCCCCCCCCC (stereo not shown) [Example 28SP, Dodecylhexadecanol] |  |  | Exudation properties [1, 6]: C; Hardness [2, 6]: 0.09 N |
| CC(C)CCCCCCCCCCCCCCC(=O)OC(C)C [IPIS, Isopropyl isostearate] | A | 0.60 N |  |
| CC(C)CCCCCCCCCCCCCCCOC(=O)CCCCCCCCCCCCCCC(C)C [ISIS, Isostearyl isostearate] | B | 0.05 N |  |
| CCCCC(CC)C(=O)OCC(COC(=O)C(CC)CCCC)(COC(=O)C(CC)CCCC)COC(=O)C(CC)CCCC (stereo not shown) [PTO, Pentaerythrityl tetraethylhexanoate] | B | 0.04 N |  |
| CC(C)CCCCCCCCCCCCCCC(=O)OCC(COC(=O)CCCCCCCCCCCCCCC(C)C)(COC(=O)CCCCCCCCCCCCCCC(C)C)COC(=O)CCCCCCCCCCCCCCC(C)C [PTI, Pentaerythrityl tetraisostearate] | B | 0.01 N |  |
| CC(C)CCCC(C)CCCC(C)CCCCC(C)CCCC(C)CCCC(C)C (stereo not shown) [SQ, Squalane] | A | 0.02 N |  |
| CCCCCCCCCCCCCCCCOC(=O)C(CC)CCCC (stereo not shown) [CEH, Cetyl ethylhexanoate] | A | 0.70 N |  |
| CCCCC(CC)C(=O)OCC(COC(=O)C(CC)CCCC)OC(=O)C(CC)CCCC (stereo not shown) [TOG, Triethylhexanoin] | B | 0.06 N |  |
| CCCCCCCCCCCCC(CO)CCCCCCCCCC (stereo not shown) [Example 24SP, Decyltetradecanol] |  |  | Exudation properties [1, 6]: C; Hardness [2, 6]: 0.05 N |
| CC(C)CCCCCCCCCCCCCCCOC(=O)CC(O)C(=O)OCCCCCCCCCCCCCCCC(C)C (stereo not shown) [DIS, Diisostearyl malate] | A | 0.80 N | Exudation properties [1, 5]: A; Hardness [2, 5]: 0.12 N |
| Trimethylolpropane triethylhexanoate [TTO] |  |  | Exudation properties [1, 6]: B; Hardness [2, 6]: 0.03 N |
| CC(C)CCCCCCCCCCCCCCC(=O)OCC(COC(=O)CCCCCCCCCCCCCCC(C)C)OC(=O)CCCCCCCCCCCCCCC(C)C [TISG, Triisostearin] | B | 0.03 N |  |

Continued, in another order:

| Exudation properties [1, 4] | Hardness [2, 4] | Compound | further results |
| --- | --- | --- | --- |
| A | 0.50 N | CC(C)CCCCCCCCCCOC(=O)CCCCCC(C)C [KAK139, Isotridecyl isononanoate] |  |
| A | 0.33 N | Polyglyceryl-2 diisostearate [PGIS22] | Exudation properties [1, 5]: A; Hardness [2, 5]: 3.00 N |
| A | 0.50 N | Polyglyceryl-2 triisostearate [PGIS23] |  |
| A | 0.35 N | Polyglyceryl-2 isostearate [PGIS21] |  |

— US7993662B2, “Transparent solid oil cosmetics” (Kokyu Alcohol Kogyo Co., Ltd., priority 2005, dated 2011)
